In brackets after ≈: the same amount, converted by molar mass. Several values for one entry are separate records, joined by “and”; a condition that tells them apart may be missing. Equal entries are not always repeated. Where two headings read alike, the source gives them in different places.
Columns and labels:
[1] = test system: SARS-CoV-2; experiment: Virus neutralization (VN) assay, scoring of SARS-CoV-2 cytopathic effects (CPE) in Vero E6 cells; assay type: cell-based
[2] = test system: Vero E6 cells

O=C1CN(/N=C/c2ccc(-c3ccc([N+](=O)[O-])cc3)o2)C(O)=N1 [dantrolene]
CPE [1]: no CPE was observed | Day 2 Read (CPE) [1]: 3/3 wells had No CPE and 3/3 walls n34 > 90% CPE | Day 4 Read (CPE) [1]: 3/3 wells had No CPE and 2/3 wells had > J0% CPE and 1/3 wells had > 90% CPE and 3/3 wells had > 90% CPE | Day 6 Read (CPE) [1]: 3/3 wells had No CPE and 2/3 wells had > 90% CPE and 1/3 wells had > 90% CPE and 3/3 wells had > 90% CPE | Day 2 Read (CPE) ([1]; 50 μM dantrolene, Day 2): 3/3 wells had sparse | Day 4 Read (CPE) ([1]; 50 μM dantrolene, Day 4): 3/3 wells had sparse | Day 6 Read (CPE) ([1]; 50 μM dantrolene, Day 6, cell wraps on: 'confluency but greater than Day 4'): 3/3 wells had sparse | cytopathic effects (virus growth) ([1]; 20 and 40 μM dantrolene, all timepoints): No cytopathic effects | MIC ([1]; Severe acute respiratory syndrome coronavirus 2, 144 h, SARS-CoV-2 in Vero E6 cells, no CPE across all time points (6 days), read-out: minimum inhibitory concentration): 20 µM (≈ 6.29 µg/mL) | anti-viral activity ([1]; lower concentrations of 10 and 5 μM): also showed anti-viral activity | cell growth at Day 6 ([2]; 50 μM dilution, Day 6 post-infection, decreased compared to lower dilutions): rebound cell growth | cytopathic effects at highest concentrations ([2]; 50 and 100 μM, Days 2 and 4, both infected cells and uninfected controls): showed cytopathic effects | Cytotoxic effects ([2]; African green monkey): Cytotoxic effects were only observed at the 2 highest dantrolene concentrations | cell viability of uninfected Vero E6 cells ([2]; lower dilutions (<50 μM dantrolene), uninfected): good cell viability

From patent publication US20230149364A1, “METHODS OF TREATING VIRAL INFECTIONS” (EAGLE PHARMACEUTICALS, INC., priority 2020, published 2023)
